Measurements taken from patent US20030228672A1, “Sorbitol dehydrogenases of ketogulonigenium species, genes and methods of use thereof” (priority 2002, published 2003).

Experiments:
[1] = tested on: β-galactosidase; assay: β-Galactosidase activity in osmotic shock fractions (intracellular enzyme marker); format: biochemical; conditions: High Sensitivity β-Galactosidase Assay Kit
Protocol: (§1) For more detailed localization study, periplasmic fraction was enriched by the method of osmotic shock (Neu, H. C. and Heppel, L. A., J. Biol. Chem., 240:3685 (1965)). Wet cells were resuspended at about 0.1 g/ml in 20% sucrose-0.03 M Tris·HCl buffer (pH 8.0) at room temperature. Di-sodium EDTA was added to 1 mM and the flask was shaken at 180 rpm at room temperature for 10 min. After centrifugation at 16,000 g for 20 min at 4° C., the supernatant was removed and the pellet was rapidly mixed with cold distilled water of the same volume as the original cell suspension and shaken in ice bucket in a shaker for 10 min. The mixture was centrifuged again to obtain the supernatant called “osmotic shock fluid”. The pellet was sonicated in the same buffer, centrifuged and the supernatant was obtained as “pellet sonicate”.
(§2) For further localization of the enzymes to periplasm or cytoplasm, periplasm was enriched by osmotic shock method as described in Step 3 of Example 1. In this method, the Tris-Sucrose wash and the osmotic shock fluid represent the periplasmic fraction and the pellet sonicate represents the cytoplasm and the cytoplasmic membrane. […] The remaining activity in pellet sonicate could be due to the incomplete release of periplasm by osmotic shock. Typical enzyme activity assay for SDH and β-galactosidase for fractions obtained by osmotic shock fractionation is shown in Table 3.

[2] = tested on: dehydrogenase enzyme activity in cellular fractions; assay: Enzyme assays with cellular fractions employing nicotinamide cofactors; format: biochemical, K. robustum ADM X6L and Ketogulonigenium sp. ADM 291-19; conditions: different substrates, either strain
[3] = tested on: purified SDH enzymes; assay: Activity of the purified SDH enzymes toward substrates; format: biochemical, K. robustum ADM X6L and Ketogulonigenium sp. ADM 291-19; conditions: purified SDH enzymes of both strains
Protocol: (§3) First, the periplasmic proteins from the cells of K. robustum ADM X6L and Ketogulonigenium sp. ADM 291-19 obtained in Step 1 of Example 1 were prepared by osmotic shock fractionation as described in Step 3 of Example 1. About 50 ml of osmotic shock fluid containing periplasmic proteins was loaded onto a DEAE-TSK 650 (S) (Merck) column (2.5×15 cm) previously equilibrated with 10 mM Tris·HCl buffer (pH 8.0). The column was first washed with 80 ml of 10 mM Tris·HCl buffer (pH 8.0) containing 0.1 M NaCl, followed by a gradient elution with 600 ml of the same buffer containing 0.1-0.5 M NaCl. Fractions containing 5 ml of eluant were collected and assayed for the SDH enzyme activities with D-sorbitol, L-sorbose and glyoxal as substrate. […] At about 0.15 M NaCl, eluted red fractions that probably contained cytochrome c.
(§4) Active fractions eluted from DEAE column were pooled and further purified by gel filtration column chromatography. The active fractions were concentrated by about 20 fold with ultrafiltration in Centricon 30 (Amicon). The concentrate was loaded onto Superose 12 (Pharmacia) and eluted isocratically with 50 mM sodium phosphate buffer (pH 7.0) containing 0.15 M NaCl.
(§5) The purified enzymes were active toward D-sorbitol, L-sorbose and glyoxal.

[4] = tested on: purified SDH of Ketogulonigenium sp. ADM 291-19; assay: Substrate specificity of purified SDH, PMS-DCIP method; format: biochemical; conditions: substrate 250 mM, 1-Propanol = 100
Protocol: The dehydrogenase enzyme activity was assayed spectrophotometrically using 2,6-dichlorophenol indophenol (DCIP) as an artificial electron acceptor and phenazine methosulphate (PMS) as an electron mediator. […] The rate of decrease in absorbance at 522 nm was determined. One unit of enzyme activity was defined as the amount of enzyme catalyzing reduction of 1 μmol of DCIP per minute.
as §3, §4, §5

[5] = tested on: dehydrogenase enzyme activity (SDH) of Ketogulonigenium sp. ADM 291-19; assay: Enzyme activity in cellular fractions, Ferric-Dupanol method (localization); format: biochemical
Protocol: (§6) Cells were harvested by centrifugation at 12,000 g for 10 min, washed once with 10 mM Tris·HCl buffer (pH 8.0) and disrupted by sonication in a Branson Sonifier 450 for 15 min at 50% duty cycle in ice. The homogenate thus prepared was centrifuged at 12,000 g for 5 min to remove the cell debris. The resulting supernatant was centrifuged at 100,000 g for 90 min to get the supernatant as soluble fraction and the precipitate as crude membrane fraction. The crude membrane fraction was solubilized with 1.5% n-octyl glucoside by stirring for 2 hours at 4° C. The resultant suspension was centrifuged at 12,000 g for 10 min to give a supernatant, designated as solubilized membrane fraction.
(§7) Enzyme activity was determined also by the Ferric-Dupanol method (Wood, W. A. et al., Meth. Enzymol., 5, 287 (1962)). The enzyme was preincubated for 5 min at 25° C. The reaction was started by addition of 10 mM (final conc.) potassium ferricyanide and 250 mM (final conc.) D-sorbitol, L-sorbose, or glyoxal. After an appropriate time, the reaction was stopped by adding the ferric sulfate-Dupanol solution (Fe2(SO4)3.nH2O 5 g/l, Dupanol (sodium lauryl sulfate) 3 g/l and 85% phosphoric acid 95 ml/l) and the absorbance of the Prussian color developed was determined at 660 nm in a spectrophotometer.
(§8) Enzyme activities towards D-sorbitol, L-sorbose and glyoxal in different cellular fractions were determined for enzyme localization in K. robustum ADM X6L and Ketogulonigenium sp. ADM 291-19. In both cases, most of the enzyme activity detected in crude cell extract was found in the soluble fraction and the activity in solubilized membrane fraction was negligible when assayed with Ferric-Dupanol method.

[6] = tested on: SDH; assay: SDH activities in osmotic shock fractions, PMS-DCIP method; format: biochemical; conditions: for SDH activity, Osmotic Shock Fluid: Osmotic Shock Fluid (periplasmic fraction); for SDH activity, Pellet Sonicate: Pellet Sonicate (cytoplasm and cytoplasmic membrane); for SDH activity, Tris-Sucrose Wash: Tris-Sucrose Wash (periplasmic fraction)
Protocol: as §1
(§9) The dehydrogenase enzyme activity was assayed spectrophotometrically using 2,6-dichlorophenol indophenol (DCIP) as an artificial electron acceptor and phenazine methosulphate (PMS) as an electron mediator. The reaction mixture contained 50 mM Tris·HCl buffer (pH 8.0), 10 mM MgCl2, 5 mM CaCl2, 5 mM KCN, 0.1 mM PMS, 0.12 mM DCIP, a substrate as D-sorbitol (250 mM), L-sorbose (250 mM) or glyoxal (50 mM) and enzyme solution in a total volumn of 1.0 ml. The rate of decrease in absorbance at 522 nm was determined. One unit of enzyme activity was defined as the amount of enzyme catalyzing reduction of 1 μmol of DCIP per minute.
as §2

[7] = tested on: dehydrogenase enzyme activity (SDH) of K. robustum ADM X6L; assay: Enzyme activity in cellular fractions, Ferric-Dupanol method (localization); format: biochemical, Ketogulonigenium robustum ADM X6L
Protocol: as §6, §7, §8

[8] = tested on: purified SDH of K. robustum ADM X6L; assay: Substrate specificity of purified SDH, PMS-DCIP method; format: biochemical, Ketogulonigenium robustum ADM X6L; conditions: substrate 250 mM, 1-Propanol = 100
Protocol: as §9, §3, §4, §5

[9] = tested on: K. robustum ADM X6L transformants; assay: Bioconversion of L-sorbose by transformants, HPLC of culture supernatant; format: cell-based, Ketogulonigenium robustum ADM X6L
Protocol: (§10) For expression of the three SDH genes in K. robustum strains, the genes with their own promoters were subcloned into the vector, pXH2/K5. These plasmids were transformed into the strains, K. robustum ADM X6L and 86-96 (NRRL B-21630), by electroporation. In this case, gene dosage effect may be expected due to the apparent high copy number of the plasmid pXH2/K5. The transformants were analyzed by HPLC for improved conversion activity upon overexpression of each SDH gene using D-sorbitol and L-sorbose as substrate.
The effect of overexpression of the three SDH genes in bioconversion activity was analyzed by HPLC analysis of the product profile of the culture supernatant of transformants in a medium containing D-sorbitol or L-sorbose as substrate. The transformants were cultivated overnight in RM medium containing 20 μg/ml of Kanamycin. This overnight culture was used to inoculate the 25 ml RM medium (supplemented with 20 μg/ml of Kanamycin) containing 20 g/l of D-sorbitol or 20 g/l of L-sorbose as substrate instead of mannitol. The culture supernatant samples were taken in a 12-hour interval and were analyzed by HPLC (Gilson HPLC with RI detector (ERC-7515A, ERC Inc.)) equipped with Asted XL automatic sample injector. […] The peaks were identified and the concentration was determined by comparison with those of the standards using glycerol as internal standard. […]

[10] = tested on: K. robustum ADM X6L transformants; assay: Bioconversion of D-sorbitol by transformants, HPLC of culture supernatant; format: cell-based, Ketogulonigenium robustum ADM X6L; conditions: D-sorbitol as substrate
Protocol: as §10
The effect of overexpression of the three SDH genes in bioconversion activity was analyzed by HPLC analysis of the product profile of the culture supernatant of transformants in a medium containing D-sorbitol or L-sorbose as substrate. The transformants were cultivated overnight in RM medium containing 20 μg/ml of Kanamycin. This overnight culture was used to inoculate the 25 ml RM medium (supplemented with 20 μg/ml of Kanamycin) containing 20 g/l of D-sorbitol or 20 g/l of L-sorbose as substrate instead of mannitol. The culture supernatant samples were taken in a 12-hour interval and were analyzed by HPLC (Gilson HPLC with RI detector (ERC-7515A, ERC Inc.)) equipped with Asted XL automatic sample injector. Samples were loaded on two 2 mm×300 mm×7.8 mm Aminex HPX-87H columns (BioRad) arranged in series to provide a total column length of 600 mm. The column was run at 50° C. at a flow rate of 0.5 ml/min. The peaks were identified and the concentration was determined by comparison with those of the standards using glycerol as internal standard.
K. robustum ADM X6L transformants harboring the pXSDH1, pXSDH2 or pXSDH3 were cultivated with D-sorbitol or L-sorbose as substrate. HPLC analysis of the products from D-sorbitol (Table 10) or L-sorbose (Table 11) is shown below. A transformant harboring pXH2 served as control.

| Molecule | nicotinamide cofactor dependence (in words) [2] | activity of the purified enzymes toward the substrate (in words) [3] | % relative activity, ADM291-19 [4] | enzyme activity, Cell Free Extract [5] | enzyme activity, Membrane Fraction [5] | enzyme activity, Soluble Fraction [5] | SDH activity, Osmotic Shock Fluid [6] | SDH activity, Pellet Sonicate [6] | SDH activity, Tris-Sucrose Wash [6] | enzyme activity, Cell Free Extract [7] | enzyme activity, Membrane Fraction [7] | enzyme activity, Soluble Fraction [7] | % relative activity, ADM X6L [8] | further results |
| --- | --- | --- | --- | --- | --- | --- | --- | --- | --- | --- | --- | --- | --- | --- |
| O=S1(=O)OC(c2ccc(O)c(Cl)c2)(c2ccc(O[C@@H]3O[C@H](CO)[C@H](O)[C@H](O)[C@H]3O)c(Cl)c2)c2ccccc21 (stereo partly drawn) [chlorophenol red-β-D-galactopyranoside] |  |  |  |  |  |  |  |  |  |  |  |  |  | β-Galactosidase Activity, Osmotic Shock Fluid ([1]; Osmotic Shock Fluid): 0.057 nmol/min; β-Galactosidase Activity, Pellet Sonicate ([1]; Pellet Sonicate): 2.2 nmol/min; β-Galactosidase Activity, Tris-Sucrose Wash ([1]; Tris-Sucrose Wash): 0.043 nmol/min |
| NC(=O)c1ccc[n+]([C@@H]2O[C@H](COP(=O)([O-])OP(=O)(O)OC[C@H]3O[C@@H](n4cnc5c(N)ncnc54)[C@H](O)[C@@H]3O)[C@@H](O)[C@H]2O)c1 [AND] | did not show any sign of nicotinamide cofactor dependence |  |  |  |  |  |  |  |  |  |  |  |  |  |
| NC(=O)c1ccc[n+]([C@@H]2O[C@H](COP(=O)([O-])OP(=O)(O)OC[C@H]3O[C@@H](n4cnc5c(N)ncnc54)[C@H](OP(=O)(O)O)[C@@H]3O)[C@@H](O)[C@H]2O)c1 [NADP] | did not show any sign of nicotinamide cofactor dependence |  |  |  |  |  |  |  |  |  |  |  |  |  |
| O=CC=O [glyoxal] |  | active | 16.1% | 0.61 ΔOD/min/2 μl enzyme | 0.00 ΔOD/min/2 μl enzyme | 0.52 ΔOD/min/2 μl enzyme | 0.43 ΔOD/min/50 μl enzyme | 0.76 ΔOD/min/50 μl enzyme | 0.36 ΔOD/min/50 μl enzyme | 0.39 ΔOD/min/4 μl enzyme | 0.00 ΔOD/min/4 μl enzyme | 0.50 ΔOD/min/4 μl enzyme | 15.1% |  |
| O=C(CO)[C@@H](O)[C@H](O)[C@@H](O)CO [L-sorbose] |  | active | 8.8% | 0.55 ΔOD/min/2 μl enzyme | 0.00 ΔOD/min/2 μl enzyme | 0.53 ΔOD/min/2 μl enzyme | 0.20 ΔOD/min/50 μl enzyme | 0.43 ΔOD/min/50 μl enzyme | 0.14 ΔOD/min/50 μl enzyme | 0.64 ΔOD/min/4 μl enzyme | 0.01 ΔOD/min/4 μl enzyme | 0.61 ΔOD/min/4 μl enzyme | 8.7% |  |
| SDH2: sorbitol dehydrogenase of K. robustum ADM 86-96, 579 amino acids (SEQ ID NO:7) (protein, listed as Ketogulonigenium sp.) MKTKSFLFAGVAALASYGTIALADVTPVTDELLANPPAGEWISYGRNQENYRHSPLNQITPENVGQLQLVWARGMNAGKVQVTPLIHDGVMYLANPGDIIQAIDAKTGDLIWEHRRQLPNVATLNSFGEPIRGIALYGTNVYFVSWDNHLVALDAATGQVTFDVDRGQGEDMVSNSSGPIVANGVIVAGSTCQYSPFGCFVSGHDATTGEELWRNYFIPKAGEEGDETWGNDYEARWMTGVWGQITYDPVTNLVFYGSSAVGPASETQRGTTGGTMYGTNTRFAVRPDTGEIVWRHQTLPRDNWDQECTFEMMVANVDVQPSADMDGLKSINPNAATGERRVLTGVPCKTGTMWQFDAETGEFLWARDTNYQNMISSIDETGLVTVNEDIILKDLDTDYRICPTFLGGRDWPSASLNPDSGIYFIPLNNACADLAAVDQEFTAMDVYNTSATYLLAPEKENMGRIDAIDISTGKTLWSVERLASNYSPVLSTAGGVLFNGGSDRYFRALSEETGETLWQTRLATVASGQAVSYELDGVQYIAIAGGGTTYGAVQNRPLAEPVDSTSIGNAVYVFALPQQ |  |  |  |  |  |  |  |  |  |  |  |  |  | improvement of 2KLG production from L-sorbose upon overexpression ([9]; flask scale experiment, versus pXH2 control): 2-3 times; 2KLG production from L-sorbose upon overexpression (in words) ([9]; flask scale experiments): significantly improved; products formed upon overexpression with D-sorbitol as substrate (in words) [10]: formation of 2-keto-D-gluconic acid (2KDG) as well as 2KLG |
